Results as given in PubChem BioAssay (NCI).
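Briefly, cells in 96-well plates were exposed to five compound concentrations for 48 h, and endpoints were estimated by linear interpolation. The concentration for 50% growth inhibition is given as GI50. At the TGI there is no net growth.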

Tests used:
Assay in all cases: growth of human tumour cells (NCI), 48 h
[1] = test system: A549 NSCLC
[2] = test system: SNB-19 CNS
[3] = test system: OVCAR-4 ovarian
[4] = test system: NCI/ADR-RES ovarian
[5] = test system: SF-539 CNS
[6] = test system: 786-0 renal
[7] = test system: MALME-3M melanoma
[8] = test system: SK-MEL-28 melanoma
[9] = test system: NCI-H460 lung
[10] = test system: SK-MEL-2 melanoma

Structure (SMILES)	GI50 [1] [µM]	TGI [1] [µM]	GI50 [2] [µM]	TGI [2] [µM]	GI50 [3] [µM]	TGI [3] [µM]	GI50 [4] [µM]	TGI [4] [µM]	GI50 [5] [µM]	TGI [5] [µM]	GI50 [6] [µM]	TGI [6] [µM]	GI50 [7] [µM]	TGI [7] [µM]	GI50 [8] [µM]	TGI [8] [µM]	GI50 [9] [µM]	TGI [9] [µM]	GI50 [10] [µM]	TGI [10] [µM]
CCN(CC)CC(O)COc1c(Br)c(Br)c(Br)c2c1OC(C)(C)C2 (stereo not drawn)	3.49	13.5	9.22	33.9	6.56	22.8	7.69	25.5	4.34	16.4	3.13	11.9	2.28	5.14	1.62	3.24	3.28	11.6	3.55	15.4
CCC(C)CC(C)C(=O)c1c(O)ccn(O)c1=O (stereo not drawn)	1.78	36.3	1.19	> 100	0.561	> 100	0.395	5.15	1.04	8.08	3.65	> 100	1.44	10.1	2.27	> 100	0.447	11.6	3.63	48.6
CCCOc1ccc(/C=N/Nc2cc(C)nc3ccc(Cl)cc23)cc1	1.72	3.35	1.95	3.54	1.71	3.2	1.9	3.81	1.79	3.2	1.86	3.42	1.79	3.26	1.73	3.15	2.04	4.03	1.73	3.22
COc1ccc(C2CC(c3ccc4ccccc4c3)=NN2c2nc(O)c(C3=c4cc(OC)ccc4=NC3=O)s2)cc1 (stereo not drawn)	0.0612	0.223	0.0897	0.592	0.033	0.128	1.89	> 100	0.741	4.34	0.028	0.0869	0.0243	0.0655	0.0932	0.334	0.0226	0.0473	0.178	0.497
c1ccc(-c2cn(-c3ccccc3)c(-c3ccccc3)n2)cc1	13.2	26.6	11.5	23.9	16.4	31	19.6	44.9	14.2	27.9	2.3	4.67	19.5	36.7	4.75	16.5	13.8	29.7	13.9	27.2
O=C(c1cccs1)c1nc2cc(Cl)ccc2[n+]([O-])c1C(F)(F)F	54.8	> 100	> 100	> 100	> 100	> 100	> 100	> 100	> 100	> 100	> 100	> 100	99	> 100	> 100	> 100	91.9	> 100	51.2	> 100
Cn1c(NCC(CN2CCCC2)OC(=O)c2ccccc2)cc(=O)n(C)c1=O (stereo not drawn)	> 100	> 100	> 100	> 100	> 100	> 100	> 100	> 100	> 100	> 100	> 100	> 100	8.69	40.8	> 100	> 100	> 100	> 100	> 100	> 100
CCN1C(=O)N(CC)C2C1NC(=S)N2/N=C/C=C/c1ccccc1OC (stereo not drawn)	0.0403	> 100	0.0482	> 100	0.125	> 100	0.0311	> 100	0.0228	0.0771	< 0.0212	> 100	0.0599	> 100	16.1	> 100	0.037	> 100	1.1	> 100
C/C(=N\O)c1cccc(Nc2cc(-c3ccccc3)nc3c(O)cccc23)c1	2.37	23.5	1.13	9.42	8.19	37.4	1.37	> 23.5	2.2	9.85	3.07	11.5	5.67	25.4	10.9	27.8	2.49	17.2	8.34	27.2
O=c1[nH]c2ccccc2n2cc3ccccc3c12	5.9	32.2	8.93	> 100	7.2	89.7	6.45	32.1	5.11	22.2	4.23	18.1	25.1	46.5	22.6	> 100	7.8	> 100	20.6	38.8
O=C(O)c1ccc(C(=O)O)c(C(=O)O)c1.[NH-]C1CCCCC1[NH-].[Pt+2]	1.87	39	11	> 93.8	7.73	50.2	3.56	60.5	4.29	43.5	1.99	> 74.7	1.67	22.8	4.97	48.1	0.889	19.1	14.3	61.4
CCC(C)(C)[C@H](NC(=O)[C@H]1CCCCN1C)C(=O)N(C)[C@H](C[C@@H](OC(C)=O)c1nc(C(=O)N[C@@H](Cc2ccccc2)C[C@H](C)C(=O)O)cs1)C(C)C	< 0.00167	> 16.7	< 0.00167	> 16.7	0.00798	> 16.7	0.00342	> 16.7	< 0.00167	< 0.00167	< 0.00167	> 16.7	< 0.00167	> 16.7	–	–	< 0.00167	> 16.7	< 0.00167	> 16.7
